Experimental data from PubChem BioAssay (NCI).
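Dose response: 5 concentrations. Exposure: 48 h. Format: 96-well plates. Endpoint: linear interpolation; highest concentration if not reached. Definition used: TGI = concentration required for complete inhibition of growth.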

What was measured:
Test in all cases: DTP human tumour cell line panel, 48 h
786-0 renal = test system: 786-0 renal
A498 renal = test system: A498 renal
A549 NSCLC = test system: A549 NSCLC
ACHN renal = test system: ACHN renal
CAKI-1 renal = test system: CAKI-1 renal
CCRF-CEM leukemia = test system: CCRF-CEM leukemia
COLO 205 colon = test system: COLO 205 colon
DU-145 prostate = test system: DU-145 prostate
EKVX NSCLC = test system: EKVX NSCLC
HCT-116 colon = test system: HCT-116 colon
HCT-15 colon = test system: HCT-15 colon
HL-60(TB) leukemia = test system: HL-60(TB) leukemia
HOP-62 NSCLC = test system: HOP-62 NSCLC
HOP-92 NSCLC = test system: HOP-92 NSCLC
HS 578T breast = test system: HS 578T breast
HT29 colon = test system: HT29 colon
IGROV1 ovarian = test system: IGROV1 ovarian
K-562 leukemia = test system: K-562 leukemia
KM12 colon = test system: KM12 colon
M14 melanoma = test system: M14 melanoma
MCF7 breast = test system: MCF7 breast
MDA-MB-231 breast = test system: MDA-MB-231 breast
MDA-MB-435 = test system: MDA-MB-435
MDA-N = test system: MDA-N
MOLT-4 leukemia = test system: MOLT-4 leukemia
NCI-H226 lung = test system: NCI-H226 lung
NCI-H23 lung = test system: NCI-H23 lung
NCI-H460 lung = test system: NCI-H460 lung
NCI/ADR-RES ovarian = test system: NCI/ADR-RES ovarian
OVCAR-3 ovarian = test system: OVCAR-3 ovarian
OVCAR-4 ovarian = test system: OVCAR-4 ovarian
OVCAR-5 ovarian = test system: OVCAR-5 ovarian
OVCAR-8 ovarian = test system: OVCAR-8 ovarian
PC-3 prostate = test system: PC-3 prostate
RPMI-8226 leukemia = test system: RPMI-8226 leukemia
SF-268 CNS = test system: SF-268 CNS
SF-295 CNS = test system: SF-295 CNS
SK-MEL-2 melanoma = test system: SK-MEL-2 melanoma
SK-MEL-28 melanoma = test system: SK-MEL-28 melanoma
SK-MEL-5 melanoma = test system: SK-MEL-5 melanoma
SK-OV-3 ovarian = test system: SK-OV-3 ovarian
SN12C renal = test system: SN12C renal
SNB-19 CNS = test system: SNB-19 CNS
SNB-75 CNS = test system: SNB-75 CNS
SR leukemia = test system: SR leukemia
SW-620 colon = test system: SW-620 colon
T-47D breast = test system: T-47D breast
TK-10 renal = test system: TK-10 renal
U251 CNS = test system: U251 CNS
UACC-257 melanoma = test system: UACC-257 melanoma
UACC-62 melanoma = test system: UACC-62 melanoma
UO-31 renal = test system: UO-31 renal
BT-549 breast = test system: BT-549 breast
HCC-2998 colon = test system: HCC-2998 colon
LOX IMVI melanoma = test system: LOX IMVI melanoma
MALME-3M melanoma = test system: MALME-3M melanoma
NCI-H522 lung = test system: NCI-H522 lung
RXF 393 renal = test system: RXF 393 renal
SF-539 CNS = test system: SF-539 CNS

SMILES: C=C[C@@H](OCOCC[Si](C)(C)C)[C@@H](CC)OC(CCCOC(=O)C(C)(C)C)OC (stereo partly drawn)
- TGI (786-0 renal): 88.5 µM
- TGI (A498 renal): > 100 µM
- TGI (A549 NSCLC): > 100 µM
- TGI (ACHN renal): > 100 µM
- TGI (CAKI-1 renal): > 100 µM
- TGI (CCRF-CEM leukemia): 92.8 µM
- TGI (COLO 205 colon): 95.1 µM
- TGI (DU-145 prostate): > 100 µM
- TGI (EKVX NSCLC): 65.4 µM
- TGI (HCT-116 colon): 52.8 µM
- TGI (HCT-15 colon): 50.9 µM
- TGI (HL-60(TB) leukemia): 49.6 µM
- TGI (HOP-62 NSCLC): > 100 µM
- TGI (HOP-92 NSCLC): > 100 µM
- TGI (HS 578T breast): 99.5 µM
- TGI (HT29 colon): > 100 µM
- TGI (IGROV1 ovarian): > 100 µM
- TGI (K-562 leukemia): > 100 µM
- TGI (KM12 colon): 63 µM
- TGI (M14 melanoma): > 100 µM
- TGI (MCF7 breast): 44.9 µM
- TGI (MDA-MB-231 breast): > 100 µM
- TGI (MDA-MB-435): > 100 µM
- TGI (MDA-N): > 100 µM
- TGI (MOLT-4 leukemia): > 100 µM
- TGI (NCI-H226 lung): 81.6 µM
- TGI (NCI-H23 lung): > 100 µM
- TGI (NCI-H460 lung): > 100 µM
- TGI (NCI/ADR-RES ovarian): > 100 µM
- TGI (OVCAR-3 ovarian): > 100 µM
- TGI (OVCAR-4 ovarian): > 100 µM
- TGI (OVCAR-5 ovarian): 44.4 µM
- TGI (OVCAR-8 ovarian): > 100 µM
- TGI (PC-3 prostate): > 100 µM
- TGI (RPMI-8226 leukemia): > 100 µM
- TGI (SF-268 CNS): > 100 µM
- TGI (SF-295 CNS): 50.7 µM
- TGI (SK-MEL-2 melanoma): 52.9 µM
- TGI (SK-MEL-28 melanoma): > 100 µM
- TGI (SK-MEL-5 melanoma): > 100 µM
- TGI (SK-OV-3 ovarian): > 100 µM
- TGI (SN12C renal): > 100 µM
- TGI (SNB-19 CNS): 32.3 µM
- TGI (SNB-75 CNS): > 100 µM
- TGI (SR leukemia): > 100 µM
- TGI (SW-620 colon): 70.1 µM
- TGI (T-47D breast): 56.5 µM
- TGI (TK-10 renal): 78.9 µM
- TGI (U251 CNS): 57.6 µM
- TGI (UACC-257 melanoma): > 100 µM
- TGI (UACC-62 melanoma): 81.3 µM
- TGI (UO-31 renal): > 100 µM

SMILES: O=C1c2cccc3cccc(c23)C(=O)N1CCCNCCCCNCCCN1C(=O)c2cccc3cccc(c23)C1=O
- TGI (786-0 renal): 0.734 µM
- TGI (A498 renal): 2.45 µM
- TGI (A549 NSCLC): 0.833 µM
- TGI (ACHN renal): 6.47 µM
- TGI (BT-549 breast): 3.02 µM
- TGI (CAKI-1 renal): 5.65 µM
- TGI (CCRF-CEM leukemia): 0.205 µM
- TGI (COLO 205 colon): 1.25 µM
- TGI (DU-145 prostate): 1.14 µM
- TGI (EKVX NSCLC): 3.28 µM
- TGI (HCC-2998 colon): 0.568 µM
- TGI (HCT-116 colon): 0.668 µM
- TGI (HCT-15 colon): 13.8 µM
- TGI (HL-60(TB) leukemia): 1.93 µM
- TGI (HOP-62 NSCLC): 2.66 µM
- TGI (HOP-92 NSCLC): 1.59 µM
- TGI (HS 578T breast): 0.216 µM
- TGI (HT29 colon): 1.27 µM
- TGI (IGROV1 ovarian): 1.83 µM
- TGI (K-562 leukemia): 0.337 µM
- TGI (KM12 colon): 3.66 µM
- TGI (LOX IMVI melanoma): 0.255 µM
- TGI (M14 melanoma): 1.94 µM
- TGI (MALME-3M melanoma): 0.74 µM
- TGI (MDA-MB-231 breast): 1.09 µM
- TGI (MDA-MB-435): 1.28 µM
- TGI (MDA-N): 1.47 µM
- TGI (NCI-H226 lung): 2.5 µM
- TGI (NCI-H23 lung): 0.866 µM
- TGI (NCI-H522 lung): 0.0803 µM
- TGI (NCI/ADR-RES ovarian): 32.3 µM
- TGI (OVCAR-3 ovarian): 4.58 µM
- TGI (OVCAR-4 ovarian): 1.93 µM
- TGI (OVCAR-5 ovarian): 2.44 µM
- TGI (OVCAR-8 ovarian): 2.24 µM
- TGI (PC-3 prostate): 1.05 µM
- TGI (RPMI-8226 leukemia): 0.179 µM
- TGI (RXF 393 renal): 0.698 µM
- TGI (SF-268 CNS): 0.605 µM
- TGI (SF-295 CNS): 3.4 µM
- TGI (SF-539 CNS): 1.57 µM
- TGI (SK-MEL-2 melanoma): 1.89 µM
- TGI (SK-MEL-28 melanoma): 0.938 µM
- TGI (SK-MEL-5 melanoma): 1.93 µM
- TGI (SK-OV-3 ovarian): 6.65 µM
- TGI (SN12C renal): 2.37 µM
- TGI (SNB-19 CNS): 4.35 µM
- TGI (SNB-75 CNS): 1.01 µM
- TGI (SR leukemia): 0.219 µM
- TGI (SW-620 colon): 3.54 µM
- TGI (T-47D breast): 4.32 µM
- TGI (TK-10 renal): 7.62 µM
- TGI (U251 CNS): 1.22 µM
- TGI (UACC-257 melanoma): 1.91 µM
- TGI (UACC-62 melanoma): 1.44 µM
- TGI (UO-31 renal): 5.51 µM
